Data: the supplement of paper PMC10307832

The cell lines below were run with Cc1nc(C(=O)NCC(=O)O)c(O)c2ccc(Oc3ccccc3)cc12 [FG-4592] + O=C(c1cc(Cc2n[nH]c(=O)c3ccccc23)ccc1F)N1CCN(C(=O)C2CC2)CC1 [Olaparib] (partner 8 µM) (assay: relative viability (nuclei count vs DMSO), 5 days (fraction); higher = more cells survive). Settings: first compound 8 µM.
In short: (§1)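 Nuclei were stained with Hoechst during a one-step fixation (final 0.05% Triton X-100, 1% formaldehyde, 1 ug/ml Hoechst) carried out 5 days after dosing, then counted on 4× images. The cells, lung cancer lines in 1536-well plates, had been dosed by pin tool the day after seeding with one drug alone or a fixed anchor-drug dose plus five library-drug doses (not always all listed) in √10 steps. Relative viability is the nuclei count in treated wells divided by that in vehicle wells, and each value is the median of duplicate plates.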
Cell Line NCI-H441 has a relative viability of 0.493.
Cell Line NCI-H661 has a relative viability of 0.816.
NCI-H1734 showed a relative viability of 0.605.
For NCI-H460, the relative viability was 0.43.
For NCI-H2347, the relative viability was 0.607.
SK-LU-1 was tested, and the relative viability was 0.472.
For NCI-H1395, the relative viability was 0.385.
In the case of 201T, the relative viability was 0.827.
NCI-H1915 showed a relative viability of 0.282.
HCC-827 was tested, and the relative viability was 0.729.
For LXF-289, the relative viability was 1.1.
NCI-H23 was tested, and the relative viability was 0.296.
NCI-H1299 was tested, and the relative viability was 0.971.
With NCI-H647 the relative viability was 0.416.
Cell Line CAL-12T has a relative viability of 0.687.

What follows are cell lines tested with Cc1nc(C(=O)NCC(=O)O)c(O)c2ccc(Oc3ccccc3)cc12 [FG-4592] + CC(=O)c1c(C)c2cnc(Nc3ccc(N4CCNCC4)cn3)nc2n(C2CCCC2)c1=O [Palbociclib] (partner 0.5 µM) in the same assay as above. Settings: first compound 0.08 µM.
In short: as §1
NCI-H522 was tested, and the relative viability was 0.97.
For NCI-H727, the relative viability was 0.674.
NCI-H1650 was tested, and the relative viability was 0.259.
For NCI-H1993, the relative viability was 0.689.
Work on SW 1573 yielded a relative viability of 0.342.
With NCI-H838 the relative viability was 0.192.
For LCLC-103H, the relative viability was 0.474.
NCI-H520 showed a relative viability of 0.15.
NCI-H2126 gave a relative viability of 0.335.
EMC-BAC-2 showed a relative viability of 0.51.
NCI-H2085 gave a relative viability of 0.507.
HCC-366 was tested, and the relative viability was 0.365.
For NCI-H1666, the relative viability was 0.698.
LK-2 showed a relative viability of 0.521.
With NCI-H2087 the relative viability was 0.284.
NCI-H2342 gave a relative viability of 0.519.
In the case of SK-MES-1, the relative viability was 0.331.
In the case of H3255, the relative viability was 0.326.
COR-L23 showed a relative viability of 0.274.
COR-L 105 showed a relative viability of 0.419.
Cell Line LOU-NH91 has a relative viability of 0.534.
ChaGo-K-1 was tested, and the relative viability was 0.9.
Cell Line NCI-H2170 has a relative viability of 0.423.
In the case of NCI-H2405, the relative viability was 0.454.
HOP-62 gave a relative viability of 0.393.
HCC-44 showed a relative viability of 0.923.
Cell Line LU99A has a relative viability of 0.38.
Cell Line BEN has a relative viability of 0.433.
Cell Line HARA has a relative viability of 0.276.
NCI-H1648 showed a relative viability of 0.248.
HCC-78 was tested, and the relative viability was 0.468.
Cell Line LCLC-97TM1 has a relative viability of 0.254.
Work on NCI-H2009 yielded a relative viability of 0.196.
Work on A-427 yielded a relative viability of 0.502.
Work on NCI-H441 yielded a relative viability of 0.226.
With NCI-H661 the relative viability was 0.397.
Cell Line NCI-H1734 has a relative viability of 0.348.
NCI-H460 gave a relative viability of 0.204.
NCI-H2347 gave a relative viability of 0.421.
SK-LU-1 showed a relative viability of 0.308.
Work on NCI-H1395 yielded a relative viability of 0.585.
Cell Line 201T has a relative viability of 0.349.
NCI-H1915 showed a relative viability of 0.475.
For HCC-827, the relative viability was 0.438.
Work on LXF-289 yielded a relative viability of 0.551.
NCI-H23 showed a relative viability of 0.628.
With NCI-H647 the relative viability was 0.422.
Cell Line CAL-12T has a relative viability of 0.554.

Same assay, conditions: first compound 0.253 µM
NCI-H522 showed a relative viability of 0.884.
In the case of NCI-H727, the relative viability was 0.589.
NCI-H1650 was tested, and the relative viability was 0.292.
Work on NCI-H1993 yielded a relative viability of 0.515.
SW 1573 showed a relative viability of 0.368.
Cell Line NCI-H838 has a relative viability of 0.218.
LCLC-103H was tested, and the relative viability was 0.408.
NCI-H520 gave a relative viability of 0.174.
With NCI-H2126 the relative viability was 0.358.
Work on EMC-BAC-2 yielded a relative viability of 0.529.
NCI-H2085 was tested, and the relative viability was 0.432.
HCC-366 was tested, and the relative viability was 0.367.
NCI-H1666 was tested, and the relative viability was 0.554.
With LK-2 the relative viability was 0.656.
NCI-H2087 showed a relative viability of 0.203.
In the case of NCI-H2342, the relative viability was 0.503.
With SK-MES-1 the relative viability was 0.287.
Cell Line H3255 has a relative viability of 0.293.
With COR-L23 the relative viability was 0.28.
COR-L 105 was tested, and the relative viability was 0.433.
In the case of LOU-NH91, the relative viability was 0.514.
ChaGo-K-1 gave a relative viability of 0.878.
NCI-H2170 gave a relative viability of 0.351.
In the case of NCI-H2405, the relative viability was 0.449.
For HOP-62, the relative viability was 0.439.
HCC-44 was tested, and the relative viability was 0.954.
With SW 900 the relative viability was 0.525.
Work on LU99A yielded a relative viability of 0.417.
BEN showed a relative viability of 0.44.
HARA showed a relative viability of 0.191.
In the case of NCI-H1648, the relative viability was 0.29.
Work on HCC-78 yielded a relative viability of 0.486.
For NCI-H322M, the relative viability was 0.455.
LCLC-97TM1 gave a relative viability of 0.215.
With NCI-H2009 the relative viability was 0.201.
Work on A-427 yielded a relative viability of 0.489.
Cell Line NCI-H441 has a relative viability of 0.214.
NCI-H661 gave a relative viability of 0.408.
Work on NCI-H1734 yielded a relative viability of 0.362.
In the case of NCI-H460, the relative viability was 0.168.
Work on NCI-H2347 yielded a relative viability of 0.433.
With SK-LU-1 the relative viability was 0.325.
With NCI-H1395 the relative viability was 0.615.
Cell Line 201T has a relative viability of 0.362.
For NCI-H1915, the relative viability was 0.513.
In the case of HCC-827, the relative viability was 0.417.
LXF-289 was tested, and the relative viability was 0.563.
Work on NCI-H23 yielded a relative viability of 0.45.
With NCI-H647 the relative viability was 0.416.
In the case of CAL-12T, the relative viability was 0.339.

Same assay, conditions: first compound 0.8 µM
Cell Line NCI-H727 has a relative viability of 0.575.
NCI-H1650 gave a relative viability of 0.304.
SW 1573 was tested, and the relative viability was 0.382.
NCI-H838 was tested, and the relative viability was 0.198.
LCLC-103H showed a relative viability of 0.414.
For NCI-H520, the relative viability was 0.192.
NCI-H2126 showed a relative viability of 0.324.
For EMC-BAC-2, the relative viability was 0.467.
In the case of NCI-H2085, the relative viability was 0.5.
With HCC-366 the relative viability was 0.311.
NCI-H1666 was tested, and the relative viability was 0.658.
NCI-H2087 was tested, and the relative viability was 0.198.
In the case of NCI-H2342, the relative viability was 0.47.
SK-MES-1 was tested, and the relative viability was 0.284.
